One assay relates to OBX mice. The experiment in a line: Depression-like symptom: tail-suspension method and forced swim method in OBX mice. Format: in vivo. The note with it: chronic administration 2 weeks. On the procedure:
OBX mice were originally established as depression model mice although a deterioration of cognitive function was observed. Depression was analyzed by a tail-suspension method (a) and a forced swim method (b). The tail-suspension method is a method of pinching the tail of a mouse and hanging the mouse upside down. If the mouse hung has depression, immobility time is long. Since a normal mouse moves even if it is hung, the immobility time is short. In the forced swim method, a mouse is forced to swim in water in a beaker. A mouse having depression neither swims nor moves (just floating). Thus the immobility time is measured. Immobility time was long in OBX mice both in the tail-suspension method (a) and the forced swim method (b). The immobility time of a TP-014 chronic administration group (2 weeks, in the same administration method as that previously mentioned) was improved.

The next assay has as its target T1, Kir6.1 channel (Mus musculus, UniProt P97794).
T1 construct: expressed in transfected cells; host or cells: Neuro2A (N2A) cells, transient transfection with pcDNA3.1-Kir6.1 (gift of Prof. Toru Ishizuka, Tohoku University)
T1 sequence (P97794 1-424): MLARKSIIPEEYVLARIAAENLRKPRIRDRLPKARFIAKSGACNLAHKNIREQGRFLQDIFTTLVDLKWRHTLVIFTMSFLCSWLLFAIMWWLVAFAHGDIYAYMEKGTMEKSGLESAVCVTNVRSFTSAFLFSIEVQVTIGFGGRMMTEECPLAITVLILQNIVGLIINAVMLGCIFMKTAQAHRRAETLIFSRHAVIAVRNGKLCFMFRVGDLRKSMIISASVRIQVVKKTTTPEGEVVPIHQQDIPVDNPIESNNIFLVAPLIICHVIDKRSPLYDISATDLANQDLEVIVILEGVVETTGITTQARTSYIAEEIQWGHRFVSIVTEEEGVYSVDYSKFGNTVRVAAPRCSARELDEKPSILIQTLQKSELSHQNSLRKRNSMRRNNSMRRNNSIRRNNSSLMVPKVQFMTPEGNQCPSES
The experiment in a line: Patch-clamp measurement of outward potassium current in Kir6.1 channel-overexpressing cells. Format: cell-based. Particulars: 10 nM TP-014, Test Example 15 (Kir6.1 channel). As to the method: A plasmid vector having cDNA of Kir6.1 channel inserted therein: pcDNA3.1-Kir6.1, was obtained from professor Toru Ishizuka of Graduate School of Life Sciences, Tohoku University. N2A cells overexpressing Kir6.1 channel were obtained in the same manner as in “preparation of N2A cells overexpressing Kir6.2 channel” of Test Example 1 except that the above plasmid was used.
Using Kir6.1 channel-overexpressing cells obtained, potassium current flowing outside from cells was measured by the ordinary patch-clamp method. ATP-sensitive potassium channel (Kir6.1 channel) was localized in the cell membrane of the nerve cells. If the channel is inhibited and clogged, the threshold of the nerve cell membrane rises to produce the analogous state as where an action potential is temporarily generated, with the result that potassium current flows out from cells outside and, in place, calcium current flows into the cells from outside. […] This was confirmed by applying immunoblotting (the same conditions as in Test Example 1 were employed except that anti-Kir6.1 channel antibody, n=5) with an anti-Kir6.1 channel antibody (prepared based on an ordinary method) to Kir6.1 channel-overexpressing cells (prepared by the aforementioned method).

Assay [1] deals with APP23 mice. The experiment in a line: New object recognition test in Alzheimer's disease model mice. Format: in vivo. Particulars: APP23 mice 12 month-old, administered for two months. As to the method: The new object recognition test method is carried out as follows. Two identical shape building blocks are placed in a mouse cage and mice are allowed to play for 10 minutes (this is referred to as a training trial). One hour later, one of the building blocks was replaced with a different-shaped building block. Since normal mice show interest on a new object, they play a longer time with the different-shaped building block. The Alzheimer's disease (model) mice, since the mice fail to recognize the new object (building block), are seemed to have memory disturbance. Mice are allowed to freely play for further 5 minutes with two building blocks different in shape (this is referred to as retention trial). In the training trial and retention trial, the number of times a mouse is in contact with each of the two objects was counted. The ratio (%) of the number of contact times to the different-shaped building block to the total number of contact times in the retention trial was calculated and used as a discrimination index.

For assay [2], the system named is APP23 mice. The experiment in a line: Long-term potentiation (LTP) in hippocampal slices, electrophysiological technique. The format is in vivo. The note with it: hippocampal slices of APP23 mice chronically treated. As to the method: FIG. 4e to FIG. 4g show the results of long-term potentiation phenomenon (LTP)(serving as an index of memory formation) analyzed by an electrophysiological technique. The hippocampus in the brain plays an important role in memorization. The hippocampus was cut into slice sections (400 micrometers in thickness). The slice sections were placed in an artificial cerebrospinal fluid (126 mM NaCl, 5 mM KCL, 26 mM NaHCO3, 1.3 mM MgSO4-7H2O, 1.26 mM KH2PO4, 2.4 mM CaCl2-2H2O, 10 mM glucose) saturated with a 95% O2/5% CO2 gas at 34° C. for two hours and recovered. The hippocampal slice sections were transferred to a measuring chamber and the artificial cerebrospinal fluid containing TP-014 was perfused. The activity of the nerve cells when electrical stimulation was applied was recorded and the postsynaptic assembly potential (fEPSP) was measured. Based on them, the degree of LTP improvement was evaluated. Thereafter, an electrical stimulation (100 Hz) was applied to the hippocampus to cause a […] (it is considered that memory is formed by a […] in the hippocampus). It was confirmed that an increase rate of the neuronal excitation decreases in APP23 mice; whereas the increase rate is improved in the mice chronically treated with TP-014.

These results are taken from patent publication US10487045B2, “Adamantane derivative and use thereof” (TOHOKU UNIVERSITY, priority 2016, dated 2019).

Structures are written as SMILES.

Turning to `O=C(N[C@@H](c1ccccc1)[C@H]1[C@H]2C[C@@H]3C[C@](Cl)(C2)C[C@@]1(OC(=O)C(F)(F)F)C3)C(F)(F)F` [TP-014, (1S,2R,3S,5S,7S)-5-chloro-2-((R)-phenyl(2,2,2-trifluoroacetamido)methyl)adamantan-1-yl 2,2,2-trifluoroacetate], the “immobility time (tail-suspension method and forced swim method)” value in the assay with OBX mice was “improved”. The outward potassium current result on Kir6.1 channel is “suppressed”. Further, the “cognitive function, new object recognition test (discrimination index)” value with APP23 mice [1] was “effectively improved”. Further, the “LTP, increase rate of neuronal excitation (fEPSP) after 100 Hz stimulation” value with APP23 mice [2] is “improved”.
